Drawing on ChEMBL document CHEMBL1132776, “(E) -6-(1-alkyloxyiminoalkyl)-5,8-dimethoxy-1,4-naphthoquinones: synthesis, cytotoxic activity and antitumor activity” (2000), this text covers EC50, Survival ratio and T/C for 14 compounds.

As usually defined, the T/C is the ratio of treated to control.

In brackets after ≈: the same amount, converted by molar mass.

The subject of test [1] is A549. As to the kind of experiment: The compound was evaluated for antiproliferative activity against A549 cell line. The class given is functional. Particulars: Homo sapiens, read-out: ED50 (the source's name).
For test [2], the species on record is Mus musculus. As to the kind of experiment: Survival ratio (SR) is the number of mice surviving after 80 days among 8 mice. It counts as functional.
In test [3] the test system is CCRF S-180. As to the kind of experiment: Percent ratio of treated to control mice after intraperitoneal injection of 1x10E7 S180 cells for antitumor activity was determined. It counts as functional, Mus musculus.
Test [4] concerns L1210. As to the kind of experiment: The compound was evaluated for antiproliferative activity against L1210 cell line. The class given is functional. Conditions: Mus musculus, read-out: ED50 (the source's name).

Regarding `CCCCCCCCCO/N=C/c1cc(OC)c2c(c1OC)C(=O)C=CC2=O`, the EC50 in test [1] is over 10 µg/mL; in test [4] it was 0.19 µg/mL (≈ 0.49 µM). Also, in test [2], the Survival ratio was found to be 5. The T/C in test [3] was 355%.
The corresponding values for `CO/N=C/c1cc(OC)c2c(c1OC)C(=O)C=CC2=O` are over 10 µg/mL, 0.109 µg/mL (≈ 0.396 µM), 2 and 318%.
For `CCCCCCCCCCCCO/N=C/c1cc(OC)c2c(c1OC)C(=O)C=CC2=O` the same measures were over 10 µg/mL, 0.311 µg/mL (≈ 0.724 µM), 0 and 119%.
For `CCCO/N=C/c1cc(OC)c2c(c1OC)C(=O)C=CC2=O` the same measures were over 10 µg/mL, 0.107 µg/mL (≈ 0.353 µM), 2 and 229%.
Regarding `CCCCCC/C(=N\OC)c1cc(OC)c2c(c1OC)C(=O)C=CC2=O`, the values for the EC50 in test [1] and in test [4] were over 10 µg/mL and 0.192 µg/mL (≈ 0.534 µM), respectively. For the same compound, the Survival ratio in test [2] amounted to 5. Moreover, the T/C in test [3] is reported as 323%.
For `CCCCCO/N=C/c1cc(OC)c2c(c1OC)C(=O)C=CC2=O` the same measures were over 10 µg/mL, 0.175 µg/mL (≈ 0.528 µM), 5 and 388%.
For `CCCCCCCO/N=C/c1cc(OC)c2c(c1OC)C(=O)C=CC2=O` the same measures were over 10 µg/mL, 0.213 µg/mL (≈ 0.593 µM), 5 and 355%.
For `COc1cc(/C=N/OCc2ccccc2)c(OC)c2c1C(=O)C=CC2=O` the same measures were over 10 µg/mL, 0.264 µg/mL (≈ 0.751 µM), 4 and 331%.
Turning to `CCCCCCCO/N=C(\CCCCCC)c1cc(OC)c2c(c1OC)C(=O)C=CC2=O`, the EC50 in test [1] was over 10 µg/mL; in test [4] it was 0.162 µg/mL (≈ 0.365 µM). Moreover, the Survival ratio in test [2] was 5. In addition, the T/C in test [3] is recorded as 375%.
The corresponding values for `CCCCCC/C(=N\OCCC)c1cc(OC)c2c(c1OC)C(=O)C=CC2=O` are over 10 µg/mL, 0.166 µg/mL (≈ 0.428 µM), 5 and 369%.
For `CCCCCCCCCO/N=C(\CCCCCC)c1cc(OC)c2c(c1OC)C(=O)C=CC2=O` the same measures were over 10 µg/mL, 1.15 µg/mL (≈ 2.43 µM), 0 and 96%.
On to `CCCCCC/C(=N\OCCCCC)c1cc(OC)c2c(c1OC)C(=O)C=CC2=O`, for which the EC50 is over 10 µg/mL in test [1] and 0.224 µg/mL (≈ 0.539 µM) in test [4]. Also, the Survival ratio in test [2] is listed as 5. In addition, the T/C in test [3] is listed as 363%.
For the compound `CCCCCCCCCCCCO/N=C(\CCCCCC)c1cc(OC)c2c(c1OC)C(=O)C=CC2=O`, the EC50 was over 10 µg/mL in test [1] and 0.193 µg/mL (≈ 0.376 µM) in test [4]. The Survival ratio in test [2] came to 2. Also, the T/C in test [3] amounted to 231%.
As to `COc1cccc2c1C(=O)c1c(O)c3c(c(O)c1C2=O)C[C@@](O)(C(=O)CO)C[C@@H]3O[C@H]1C[C@H](N)[C@H](O)[C@H](C)O1` [DOXORUBICIN], the EC50 in test [1] turned out to be 1.01 µg/mL (≈ 1.86 µM); in test [4], 0.016 µg/mL (≈ 0.0294 µM). For the same compound, the Survival ratio in test [2] stood at 3. In test [3], the T/C is recorded as 315%.
